Structures are written as SMILES. Converted amounts (≈) assume the structure as drawn. Like-named read-outs stand apart in the source and are kept apart here.

Holding throughout (format): cell-based
The test system of experiment [1] is Staphylococcus epidermidis. The experiment is described as follows: MIC agar dilution, micro-organism 14 (11047). Particulars: Staphylococcus epidermidis 11047, read-out: MIC. The method in brief: (§1)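 Agar dilution in Isosensitest/CCEY agar with egg yolk and lysed horse blood; compounds as aqueous emulsions (myristyl and lauryl alcohol with 1-methyl-2-pyrrolidone and Tween 20). 1 µL spots of 1/15-diluted 0.5 McFarland suspensions, 37 °C aerobic, read at 22 and 48 h; MIC (mmol/L) is lowest concentration giving <10 colonies.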

For the next experiment, the system named is Listeria monocytogenes. The experiment is described as follows: MIC agar dilution, micro-organism 15 (11994). Particulars: Listeria monocytogenes 11994, read-out: MIC. The method in brief:
as §1
For orientation: In agar dilution the substance is mixed into plates at graded concentrations.

For another experiment, the system named is Enterococcus faecium. The experiment is described as follows: MIC agar dilution, micro-organism 16 (7171). Particulars: Enterococcus faecium 7171, read-out: MIC. The method in brief: as §1
The subject of another experiment is Bacillus subtilis. The experiment can be described thus: MIC agar dilution, micro-organism 18 (9372). As to conditions: Bacillus subtilis 9372, read-out: MIC. The method in brief: as §1
The subject of a further experiment is Candida glabrata. The experiment is described as follows: MIC agar dilution, micro-organism 20 (3943). As to conditions: Nakaseomyces glabratus, Candida glabrata 3943, read-out: MIC. The essentials:
as §1

The subject of experiment [2] is Enterococcus faecalis (VRE) PHLS URINE 2000. The experiment is described as follows: MIC agar dilution, VRE strain 21. Here is the method:
(§2) Molar equivalent concentrations were used to allow comparison between compounds of differing molecular mass. Due to weighing difficulties, any compound in solid form was melted in a water bath prior to dilution. To make ten-times strength concentrations, which takes into account agar dilution, 0.0352 mmol of each compound was weighed into plastic universal bottles and 4 mL of sterile distilled water (SDW) was added. To produce a homogenous emulsion the universals were vortexed; once achieved the emulsions were serial diluted by adding 2 mL to 2 mL of SDW.
(§3) For every 100 mL of Isosensitest agar (IST) (CM0471; Oxoid, Basingstoke, England), 3.1 g of the IST powder was added to 100 mL SDW (as per manufacturer's instructions) and sterilised for 15 minutes at 121° C. Once sterilised, the molten agar was cooled to 50° C. in a water-bath. Subsequently 4.8 g of CCEY powder (BC2160; Bioconnections, Wetherby, England), also known as Brazier's medium, was added to 100 mL SDW for every 100 mL of agar needed. This was then sterilised for 15 minutes at 121° C. Once sterilised the molten agar was cooled to 50° C. in a water-bath and 4 mL of egg-yolk emulsion (S2073; TCS Biosciences Ltd, Buckingham, United Kingdom) and 1 mL of lysed defibrinated horse blood (HB035; TCS Biosciences Ltd, Buckingham, United Kingdom) were also added for every 100 mL needed. Horse blood lysis is achieved by dilution to half concentration with SDW; when fully lysed the mixture will turn dark red in colour.
(§4) 18 mL agar was added to each universal and then poured into sterile Petri dishes. This step creates a 1/10 dilution resulting in agar plates of the required strength. Control plates for each set of strains were created by adding 18 mL of agar to 2 mL of SDW.
(§5) Suspensions of each bacterial species were prepared with a density equal to that of a 0.5 McFarland standard using a densitometer. All suspensions were made using sterile distilled water and fresh 18-20 hour cultures. As a 0.5 McFarland standard contains 1.5×10^8 CFU/mL and the multipoint inoculators applies 1 μL spots of liquid, each bacterial suspension was diluted 1/15 (20 μL suspension to 280 μL sterile distilled water).
(§6) Bacterial suspensions were prepared from fresh 18-24 hour cultures as previously described. 1 μL of each strain was inoculated onto all 100 agar plates containing a different chemical concentration and the 2 control plates. This was done using a multipoint inoculator which inoculates 20 strains per plate. All plates were incubated for 22 hours at 37° C. in aerobic conditions.
(§7) Each plate was examined for bacterial growth after 22 and 48 hours, with each being incubated in between examinations. A positive result was recorded as growth of ≧10 colonies. A negative result was recorded as growth of <10 colonies as this is equivalent to 99.9% inhibition. The lowest concentration of chemical that inhibited growth was recorded as the MIC. The results are recorded in Table IV below, where the numbers are quoted in mmol/L.
(§8) Given the positive performance of the ethoxylates of lauryl alcohol in reducing the MIC for a number of the micro-organisms tested, further MIC testing of Laureth-1 [C12E1] through to Laureth-8 [C12E8] was conducted on each of the following: • 10 strains of vancomycin-resistant enterococci (VRE)—listed in Table V below; and • 20 strains of methicillin-resistant Staphylococcus aureus (MRSA)—listed in Table VI.
(§9) The alkanol, alkanol derivatives, agar plates, and inocula were all prepared in the same way as described above.
(§10) The plates were examined in the same manner as described above and the results are recorded in Table VII below, where the numbers are quoted in mmol/L.

The subject of experiment [3] is MRSA GER 131/98 (Sger Iidc). The experiment can be described thus: MIC agar dilution, MRSA strain 35. Particulars: Staphylococcus aureus. The method, then:
as §2, §3, §4, §5, §6, §7, §8, §9, §10

In a further experiment the test system is MRSA FRA 920. The experiment can be described thus: MIC agar dilution, MRSA strain 38. As to conditions: Staphylococcus aureus. Here is the method:
as §2, §3, §4, §5, §6, §7, §8, §9, §10

The next experiment deals with MRSA EMRSA 15 21268/98. The experiment is described as follows: MIC agar dilution, MRSA strain 40. Particulars: Staphylococcus aureus. Here is the method:
as §2, §3, §4, §5, §6, §7, §8, §9, §10

As for `CCCCCCCCCCCCOCCOCCOCCOCCOCCOCCOCCO` [L7, Heptaethylene Glycol Monododecyl Ether], the MIC in experiment [1] (22 hrs) is 110 µM (≈ 54.4 µg/mL); in experiment [1] (48 hrs) it was 110 µM (≈ 54.4 µg/mL); in the experiment on Listeria monocytogenes (22 hrs) it was 220 µM (≈ 109 µg/mL); with Listeria monocytogenes (48 hrs), 220 µM (≈ 109 µg/mL); in the experiment on Enterococcus faecium (22 hrs) it was greater than 880 µM; with Enterococcus faecium (48 hrs) it was greater than 880 µM. The MIC with Bacillus subtilis (22 hrs) was 110 µM (≈ 54.4 µg/mL); in the experiment on Bacillus subtilis (48 hrs), 110 µM (≈ 54.4 µg/mL); in the experiment with Candida glabrata (22 hrs), greater than 880 µM; in the experiment with Candida glabrata (48 hrs), greater than 880 µM; in experiment [2] (22 hrs), 440 µM (≈ 218 µg/mL); in [2] (48 hrs), 880 µM (≈ 435 µg/mL). Also, the minimum inhibitory concentration (MIC) is 110 µM (≈ 54.4 µg/mL) in [3] (22 hrs); 220 µM (≈ 109 µg/mL) in experiment [3] (48 hrs); 220 µM (≈ 109 µg/mL) in the experiment with MRSA FRA 920 (22 hrs); 440 µM (≈ 218 µg/mL) against MRSA FRA 920 (48 hrs); greater than 440 µM in the experiment on MRSA EMRSA 15 21268/98 (22 hrs); greater than 440 µM against MRSA EMRSA 15 21268/98 (48 hrs).
In the case of `CCCCCCCCCCCCOCCOCCOCCOCCOCCOCCOCCOCCO` [L8, Octaethylene Glycol Monododecyl Ether], the minimum inhibitory concentration (MIC) in experiment [1] (22 hrs) is 110 µM (≈ 59.3 µg/mL); in experiment [1] (48 hrs) it was 110 µM (≈ 59.3 µg/mL); in the experiment on Listeria monocytogenes (22 hrs), 440 µM (≈ 237 µg/mL); with Listeria monocytogenes (48 hrs) it was greater than 880 µM; in the experiment with Enterococcus faecium (22 hrs), greater than 880 µM; in the experiment with Enterococcus faecium (48 hrs), greater than 880 µM. Besides, the MIC in the experiment on Bacillus subtilis (22 hrs) is 110 µM (≈ 59.3 µg/mL); in the experiment on Bacillus subtilis (48 hrs), 110 µM (≈ 59.3 µg/mL); in the experiment with Candida glabrata (22 h, 22 hrs), greater than 880 µM; with Candida glabrata (48 h, 48 hrs) it was greater than 880 µM; in [2] (22 hrs), 220 µM (≈ 119 µg/mL); in experiment [2] (48 hrs), 220 µM (≈ 119 µg/mL). In addition, the MIC in [3] (22 hrs) was 440 µM (≈ 237 µg/mL); in experiment [3] (48 hrs), greater than 440 µM; against MRSA FRA 920 (22 hrs), greater than 440 µM; against MRSA FRA 920 (48 hrs), greater than 440 µM; against MRSA EMRSA 15 21268/98 (22 hrs) it was greater than 440 µM; against MRSA EMRSA 15 21268/98 (48 hrs), greater than 440 µM.

A word on the MIC: it is the smallest concentration in the dilution series that meets the test's criterion for growth inhibition.

The values above are taken from US20130165368A1, “ANTIMICROBIAL COMPOUNDS” (priority 2010, published 2013).
